{
  "source": "patent US20100279941A1",
  "about": "“CD36 MODULATION AND USES THEREOF” (priority 2009, published 2010)",
  "test_system": "CD36^+/+ and CD36^−/− mice",
  "assay": "Area at risk and infarct size after 30-min LCAL and 48 hours reperfusion (Evans blue/TTC)",
  "format": "in vivo",
  "excerpt": "Animals. CD36^−/− mice were generated by targeted homologous recombination and backcrossed six times to C57BI/6. Wild-type control littermates (CD36^+/+) were bred from the same cross and were therefore of identical genetic background [Febbraio et al., 2000]. Male mice, aged 23 (±1) weeks, were used for experiments. They were fed standard chow (#5075, Charles Rivers, Saint-Constant, Québec, Canada) and water ad libitum, and housed singly during treatment periods (2 or 10 weeks). Daily pharmacological treatments with 300 μg/kg of EP 80317 or CP1A(IV) or vehicle (0.9% NaCl) were done by subcutaneous (s.c.) injections.\nC57BU6 mice were bred in house. Male mice, aged 23 (±1) weeks, were used for experiments. They were fed standard chow (#5075, Charles Rivers, Saint-Constant, Québec, Canada) and water ad libitum, and housed singly during treatment periods (2 weeks). Daily pharmacological treatments with 300 μg/kg (289 nmol/kg) of EP 80317 or 289 nmol/kg of CP-3(IV), 289 nmol/kg of CP-AP-4 or vehicle (0.9% NaCl) were done by subcutaneous (s.c.) injections.\nExperimental model of IHD: Transient left coronary artery ligation in vivo. Mice were subjected to a transient LCAL surgery as described before, with minor modifications [Tarnayski et al., 2004]. Mice were injected i.p. with buprenorphine (0.05 mg/kg) and placed in an induction chamber with inhalation anesthesia comprised of 3% isoflurane mixed with 100% oxygen. Mice were intubated with a blunt ended 20-gauge catheter into the trachea via the mouth and mechanically ventilated at a tidal volume of 7 ml/kg at 130 respirations/min with a MiniVent™ mouse ventilator (model 845, Harvard Apparatus, Saint-Laurent, QC, Canada). Anesthesia was maintained with 1.5-2% isoflurane and the animals were kept warm using electrical heating pads during the surgical procedure. The chest was opened by a horizontal incision through the skin and muscle layers at the third intercostal space exposing the left side of the heart. […] Visual blanching distal to the coronary occlusion confirmed myocardial ischaemia. Lidocaine (6 mg/kg) was administered i.p. just following occlusion and prior to reperfusion. After 30 minutes, the PE10 tubing was removed allowing reperfusion. The lungs were reinflated and the chest wound closed layer by layer before extubation. At 6 hours following reperfusion, mice were anesthetized (isoflurane), a blood sample withdrawn, and the heart arrested in diastole by an intravenous injection of 1 M KCl (0.5 mL). Hearts were immediately frozen at −80° C. unless otherwise stated.\nEvaluation of area at risk and infarct size. Two days after reperfusion, the left anterior descending (LAD) coronary artery was re-occluded at the original site and the abdominal aorta was injected retrogradly with 5% Evans blue dye to delineate the AAR by the absence of dark blue staining. The left ventricle, including the interventricular septum, was dissected and cut into transverse 1-mm slices from the apex to the base, using an acrylic matrix (Alto Inc., Hatfield, Pa., USA). The slices were incubated in 1% triphenyltetrazolium chloride solution at 37° C. for 15 min and placed in 10% neutral buffered formalin for 12 hours. Each slice was weighed and photographed on both sides with a digital camera (Nikon, Coolpix™ 4500, Mississauga, Ontario, Canada). The total LV area, AAR and IA were determined for each side of a slice by planimetric analysis using Adobe CS3 Photoshop™ software (Ottawa, ON, Canada), and averaged. The infarct weight was determined as follows: [(A1×WT1)+(A2×WT2)+(A3×WT3)+(A4×WT4) . . . ] where A and WT are the infarct area and weight of the section, respectively. The AAR weight was calculated in a similar manner, but by subtracting the blue (viable) stained zone from the weight. The results are expressed in terms of % IA/AAR, IA/LV and AAR/LV.",
  "key": {"[1]": {"details": "2-week treatment 300 μg/kg/d, CD36^+/+ mice, 48 hours reperfusion, p<0.05 vs vehicle"}},
  "data": [
    {"substance": "HAIC-2MeDTrp-DLys-Trp-DPhe-Lys-NH2 [EP 80317]", "values": [
      {"measurement": "reduction of IA/AAR ratio", "setting": "[1]", "value": 31, "unit": "%"},
      {"measurement": "reduction of IA/LV ratio", "setting": "[1]", "value": 34, "unit": "%"},
      {"measurement": "area-at-risk", "setting": "CD36^+/+ (C57BL/6) mice, 289 nmol/kg 2 weeks, 48 hours reperfusion, mean (±SE)", "value": "51 (±5) %"},
      {"measurement": "reduction of IA/LV ratios", "setting": "CD36^+/+ (C57BL/6) mice, 289 nmol/kg 2 weeks, 48 hours reperfusion, p<0.001 vs 0.9% NaCl", "value": 48, "unit": "%"},
      {"measurement": "effect on infarct size", "setting": "CD36^−/− mice, 48 hours reperfusion, in words", "value": "did not modulate"},
      {"measurement": "effect on AAR/LV", "setting": "pretreatment 14 days, both CD36^+/+ and CD36^−/− mice, in words", "value": "did not modulate"}
    ]}
  ]
}
